Test results from ChEMBL document CHEMBL5113368, “Meroterpenoids produced by fungi: Occurrence, structural diversity, biological activities, and their molecular targets” (Eur J Med Chem, 2021).
Converted amounts (≈) assume the structure as drawn.

Experiments:
HeLa = test: Cytotoxicity against human HeLa cells assessed as cell growth inhibition measured after 48 hrs by MTT assay; assay type: functional, cell-based
SGC-7901 = test: Cytotoxicity against human SGC-7901 cells assessed as cell growth inhibition measured after 48 hrs by MTT assay; assay type: functional, cell-based; details: SGC-7901, 48 h
[1] = Antioxidant activity assessed as DPPH radical scavenging activity; assay type: functional
[2] = Antioxidant activity assessed as ABTS radical scavenging activity; assay type: functional
Hepatitis C virus = test: Antiviral activity against Hepatitis C virus infected in human Huh7.5 cells assessed as inhibition of viral replication; assay type: functional, organism-based, Hepacivirus hominis
Suid alphaherpesvirus 1 = test: Antiviral activity against pseudorabies virus assessed as inhibition of viral growth; assay type: functional, organism-based
Beta-secretase 1 = Beta-secretase 1 (Homo sapiens, UniProt P56817); test: Inhibition of BACE1 (unknown origin) using […] incubated in dark for 1 hr by fluorescence based analysis
A549 [3] = test: Cytotoxicity against human A549 cells assessed as cell growth inhibition by CCK-8 method; assay type: functional, cell-based
[4] = target: T1, Prostaglandin G/H synthase 2 (Homo sapiens, UniProt P35354); test: Inhibition of human recombinant COX-2 pretreated with compound for 10 mins followed by substrate addition for 10 mins by fluorescent inhibitor screening assay
T1 sequence (P35354 whole entry): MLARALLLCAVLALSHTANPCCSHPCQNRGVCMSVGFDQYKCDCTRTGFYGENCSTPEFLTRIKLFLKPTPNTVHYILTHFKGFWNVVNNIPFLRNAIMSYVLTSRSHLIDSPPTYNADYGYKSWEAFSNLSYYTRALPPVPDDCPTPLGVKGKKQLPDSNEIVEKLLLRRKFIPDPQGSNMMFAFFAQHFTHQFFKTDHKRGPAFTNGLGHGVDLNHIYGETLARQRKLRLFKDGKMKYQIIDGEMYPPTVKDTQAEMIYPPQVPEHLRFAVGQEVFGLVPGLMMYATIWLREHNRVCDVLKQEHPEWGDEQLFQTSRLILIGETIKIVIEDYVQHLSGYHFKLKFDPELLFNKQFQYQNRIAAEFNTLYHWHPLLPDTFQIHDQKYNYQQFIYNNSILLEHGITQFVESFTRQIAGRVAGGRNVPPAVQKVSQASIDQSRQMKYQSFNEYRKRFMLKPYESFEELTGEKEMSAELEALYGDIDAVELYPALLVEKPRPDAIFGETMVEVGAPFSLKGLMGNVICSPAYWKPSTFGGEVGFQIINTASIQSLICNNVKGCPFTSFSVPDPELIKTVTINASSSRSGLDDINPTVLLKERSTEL

MCF7 [5] = test: Antiproliferative activity against human MCF7 cells assessed as cell growth inhibition; assay type: functional, cell-based
SF-268 = test: Antiproliferative activity against human SF-268 cells assessed as cell growth inhibition; assay type: functional, cell-based
A549 [6] = test: Antiproliferative activity against human A549 cells assessed as cell growth inhibition; assay type: functional, cell-based
HepG2 = test: Antiproliferative activity against human HepG2 cells assessed as cell growth inhibition; assay type: functional, cell-based
THP-1 = test: Cytotoxicity against human THP-1 cells assessed as cell growth inhibition measured after 24 hrs by MTT assay; assay type: functional, cell-based; details: THP-1, 24 h
HL-60 = test: Cytotoxicity against human HL-60 cells assessed as cell growth inhibition measured after 24 hrs by MTT assay; assay type: functional, cell-based; details: HL-60, 24 h
[7] = Cytotoxicity against human Caco-2 cells assessed as cell growth inhibition measured after 24 hrs by MTT assay; assay type: toxicity, cell-based
Salmonella typhi = test: Antibacterial activity against Salmonella typhi assessed as reduction in microbial growth by modified broth dilution test; assay type: functional, Salmonella enterica subsp. enterica serovar Typhi; details: Salmonella enterica
Fusarium graminearum [8] = test: Antifungal activity Fusarium graminearum assessed as inhibition of fungal growth by microbroth dilution method; assay type: functional
[9] = tested on: Human immunodeficiency virus 1; test: Antiviral activity against HIV1 VSV-G pseudotyped virus infected in human SUP-T1 cells infected using supernatant of virus-producing 293T cells incubated for 48 hrs by firefly luciferase assay; assay type: functional, organism-based; details: Human immunodeficiency virus 1, SUP-T1, 48 h
[10] = Cytotoxicity against rat IEC-6 cells assessed as cell growth inhibition by WST-1 assay; assay type: toxicity, cell-based
[11] = Toxicity in brine shrimp assessed as induction of lethality; details: artemia salina; read-out: LD50 (the source's name)
Botrytis cinerea = test: Antifungal activity against Botrytis cinerea assessed as fungal growth inhibition by modified broth dilution; assay type: functional
Sclerotinia sclerotiorum = test: Antifungal activity against Sclerotinia sclerotiorum assessed as fungal growth inhibition by modified broth dilution; assay type: functional
Fusarium graminearum [12] = test: Antifungal activity against Fusarium graminearum assessed as fungal growth inhibition by modified broth dilution; assay type: functional
Colletotrichum acutatum = test: Antifungal activity against Colletotrichum acutatum assessed as fungal growth inhibition by modified broth dilution; assay type: functional
Phytophthora nicotianae = test: Antifungal activity against Phytophthora parasitica assessed as fungal growth inhibition by modified broth dilution; assay type: functional
Bipolaris maydis = test: Antifungal activity against Bipolaris maydis assessed as fungal growth inhibition by modified broth dilution; assay type: functional
Verticillium dahliae = test: Antifungal activity against Verticillium dahliae assessed as fungal growth inhibition by modified broth dilution; assay type: functional
MCF7 [13] = test: Cytotoxicity against human MCF7 cells assessed as cell growth inhibition measured after 96 hrs by MTT assay; assay type: functional, cell-based; details: MCF7, 96 h

Chain of Beta-secretase 1 (P56817 whole entry): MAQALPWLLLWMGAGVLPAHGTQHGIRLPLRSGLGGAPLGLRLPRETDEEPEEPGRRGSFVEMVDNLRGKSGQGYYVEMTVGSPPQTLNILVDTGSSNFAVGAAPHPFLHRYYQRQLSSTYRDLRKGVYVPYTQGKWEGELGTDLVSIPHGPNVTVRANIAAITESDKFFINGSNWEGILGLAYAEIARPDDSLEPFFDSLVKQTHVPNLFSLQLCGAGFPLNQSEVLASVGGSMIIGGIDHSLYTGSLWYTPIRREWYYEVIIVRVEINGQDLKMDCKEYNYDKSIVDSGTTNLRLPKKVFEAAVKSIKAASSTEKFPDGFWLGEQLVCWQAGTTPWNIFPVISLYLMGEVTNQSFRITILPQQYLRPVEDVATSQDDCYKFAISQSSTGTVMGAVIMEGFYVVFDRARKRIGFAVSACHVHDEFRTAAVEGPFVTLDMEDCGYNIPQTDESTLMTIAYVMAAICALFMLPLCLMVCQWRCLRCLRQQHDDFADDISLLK

Q: Which IC50 (HeLa) does the source give for `COc1ccc(O)c2c1[C@@H]1C=C(CC/C=C(/C)C2)C(=O)O1` here?
A: 23.5 µM

Q: And the IC50 (SGC-7901)?
A: 14.5 µM

Q: Which results are given for `C/C(=C\CCC1=CC(c2cc(O)ccc2O)OC1=O)C(=O)O` (centres undefined)?
A: IC50 [1]: 65.4 µM; IC50 [2]: 31.2 µM

Q: With `CC1=C(O)C(=O)[C@@]23[C@H](C)CC[C@@H]2[C@H](C)CO[C@]32Oc3cc(O)cc(CO)c3C=C12` as the compound, how does the IC50 (Hepatitis C virus) read?
A: 9.5 µM

Q: For `C[C@@H]1Cc2c3c(cc(O)c2C(=O)O1)O[C@]1(C)CCC[C@](C)([C@H]2C[C@@H](O)C2(C)C)[C@H]1C3`, which EC50 (Suid alphaherpesvirus 1) is on record?
A: 3.35 µM

Q: Which IC50 (Beta-secretase 1) does the source give for `C=C1[C@@]23C(=O)O[C@H](C)[C@@]2(O)C(=O)O[C@]1(C)[C@@H](O)C1=C2CO[C@H]4CC(=O)OC(C)(C)[C@@]24CC[C@@]13C` here?
A: 0.078 µM

Q: With `CC(C)=CCC/C(C)=C/CCC1=C[C@]2(OC1=O)c1cc(O)ccc1OC(=O)[C@]2(CC/C=C(\C)CCC=C(C)C)CC(=O)c1cc(O)ccc1O` (racemic) as the compound, how does the IC50 (A549 [3]) read?
A: 7.14 µM

Q: What about the IC50 [4] of the same compound?
A: 1.29 µM

Q: With `COC(=O)/C=C1\O[C@@]2(C)C/C=C/C(C)(C)C[C@@H]3Cc4c(C)cc(=O)c(O)cc4O[C@]3(C)[C@H](O)C[C@@H]2C[C@@]12OC(=O)C=C2C` as the compound, how does the IC50 (MCF7 [5]) read?
A: 0.5 µM

Q: What about the IC50 (SF-268) of the same compound?
A: 0.5 µM

Q: And the IC50 (A549 [6])?
A: 0.5 µM

Q: What about the IC50 (HepG2) of the same compound?
A: 0.5 µM

Q: For `C=C1[C@@]2(C)C[C@H]3[C@@]4(C)C(=CC[C@]3(C)[C@]1(C(=O)OC)C(=O)[C@@](C)(O)C2=O)C(C)(C)C(=O)C[C@H]4O` [BERKELEYTRIONE], which IC50 (THP-1) is on record?
A: 4.3 µM

Q: And the IC50 (HL-60)?
A: 3.4 µM

Q: And the IC50 at 24 h [7]?
A: 10.5 µM

Q: For `Cc1oc(=O)c2c(c1C)O[C@]1(C)[C@H](O)[C@@H]3O[C@](O)(CC[C@H](C)[C@H]1C2)C(C)(C)C3=O`, which MIC (Salmonella typhi) is on record?
A: 12.5 µg/mL

Q: And the MIC (Fusarium graminearum [8])?
A: 12.5 µg/mL

Q: For `C/C=C/C=C/C1=C(CO)[C@@H](O)[C@@H](O)[C@@H](CC=C(C)C)C1=O`, which IC50 [9] is on record?
A: 18 µM

Q: For `C=C1[C@@]2(C)C[C@H]3C(=C)[C@]4(C=CC(=O)OC4(C)C)CC[C@]3(C)[C@@]13C(=O)O[C@@H](C)[C@@]3(O)C2=O`, which IC50 [10] is on record?
A: 2.52 µg/mL (≈ 5.91 µM)

Q: With `C=C(C)[C@H]1O[C@H]2CC[C@@]3(C)[C@@](O)(CC[C@@]4(O)[C@@H]5OC(C)(C)[C@H]6C[C@@H]7C(=C)Cc8c(Cl)cc9[nH]c(c5c9c8[C@@]76O)[C@]34C)[C@]23O[C@@H]3[C@H]1O` as the compound, how does the LC50 [11] read?
A: 3.2 µM

Q: What does the source list for `CC(C)=CCc1ccc2c3c([nH]c2c1)[C@@]1(C)[C@@H](CC[C@@]2(O)[C@@]45O[C@@H]4[C@H](O)[C@@H](C(C)(C)O)O[C@H]5CC[C@@]21C)C3`?
A: MIC (Botrytis cinerea): 25 µg/mL (≈ 47.9 µM); MIC (Sclerotinia sclerotiorum): 25 µg/mL (≈ 47.9 µM); MIC (Fusarium graminearum [12]): 25 µg/mL (≈ 47.9 µM); MIC (Colletotrichum acutatum): 25 µg/mL (≈ 47.9 µM); MIC (Phytophthora nicotianae): 25 µg/mL (≈ 47.9 µM); MIC (Bipolaris maydis): 25 µg/mL (≈ 47.9 µM); MIC (Verticillium dahliae): 25 µg/mL (≈ 47.9 µM)

Q: With `CC(C)=CC[C@H]1C(=O)C2=C(CO[C@@H]2CCO)[C@@H](O)[C@H]1O` as the compound, how does the IC50 (MCF7 [13]) read?
A: 4.2 µM
